Source: the NIST ThermoML archive (doi:10.1016/j.fluid.2016.04.012)
Numbers after ± are expanded uncertainties.

Conditions: Liquid, Closed cell (Static) method

Compound: CO [methanol]
- vapor or sublimation pressure (337.85 K): 101.3 ± 1.1 kPa

Compound: C1CCOC1 [tetrahydrofuran]
- vapor or sublimation pressure (338.65 K): 101.3 ± 1.1 kPa
